Assay results from patent publication US20130079345A1, “[…] ACTIVE DISUBSTITUTED TRIAZINE DERIVATIVES” (BAYER INTELLECTUAL PROPERTY GMBH, priority 2010, published 2013).
Structures can show the parent of a compound that is named as a salt.

Key:
[1] = system: H460 cells; assay: Cell viability, H460 cells; assay type: cell-based, human
Protocol: (§1) HeLa- or MDAMB468-Cells or MATU ADR, H460, DU145, CACO-2 or B16F10 cells were maintained in RPMI 1640 or McCoy's 5A cell culture medium+glutamine (PAN Biotech GmbH, Aidenbach, Germany; order no. P04-22100; P04-05500) supplemented with 10% fetal calf serum “Gold” (PAA Laboratories GmbH, Pasching, Austria; order no. A15-151) and grown at 37° C., 5% CO2. For the cell viability assay, cells were seeded with a density of 400 (Hela cells, DSMZ Braunschweig order no. ACC57) or 800 (MDAMB468 cells, ATCC order no. HTB-132) per well in 25 μL in 384-well plates (Greiner Bio-One, Frickenhausen, Germany; order no. 781080). After overnight incubation at 37° C./5% CO2, 25 nL or 75 nL compound were added to each sample well by using BIOMEK FXP Laboratory Automation Workstation (Beckman Coulter, USA). Wells with cells and 0.1% or 0.3% DMSO in culture medium were used as positive controls, wells with cells and 10 μM staurosporine in culture medium were used as negative controls. The cells were incubated with the compounds for 72 h at 37° C./5% CO2. For measurement of cell viability […] Cell Titer Glo reagent (Promega, Madison, USA; order no. G7573), 1:2 diluted with cell culture medium, was added to each well. The 384well-plates were placed for 2 min on an orbital microplate shaker and incubated for further 10 min at room temperature to stabilize the luminescence signal. Luminescence was measured by Envision Plate Reader (Perkin Elmer, USA). EC50 values were calculated with the software Excel Fit (IDBS, Guildford, UK) from 3-fold dilution series comprising at least 8 concentrations in duplicates.
(§2) Cultivated tumour cells (NCl-H460, human non-small cell lung carcinoma cells, ATCC HTB-177; DU 145, hormone-independent human prostate carcinoma cells, ATCC HTB-81; HeLa-MaTu, human cervical carcinoma cells, EPO-GmbH, Berlin; HeLa-MaTu-ADR, multidrug-resistant human cervical carcinoma cells, EPO-GmbH, Berlin; HeLa human cervical tumour cells, ATCC CCL-2; Caco-2 human colorectal carcinoma, ATCC HTB-37; B16F10 mouse melanoma cells, ATCC CRL-6475) were plated at a density of 5,000 cells/well (DU145, HeLa-MaTu-ADR), 3,000 cells/well (NCl-H460, HeLa-MaTu, HeLa), 1,500 cells/well (Caco-2), or 1,000 cells/well (B16F10) in a 96-well multititer plate in 200 μL of their respective growth medium supplemented with 10% fetal calf serum. After 24 hours, the cells of one plate (zero-point plate) were stained with crystal violet (see below), while the medium of the other plates was replaced by fresh culture medium (200 μl), to which the test substances were added in various concentrations (0 μM as well as in the range of 0.001 to 10 μM; the final concentration of the solvent dimethyl sulfoxide was 0.5%). The cells were incubated in the presence of test substances for 4 days. Cell proliferation was determined by staining the cells with crystal violet: The cells were fixed by adding 20 μl/measuring point of an 11% glutaric aldehyde solution at room temperature for 15 minutes. After three washing cycles of the fixed cells with water, the plates were dried at room temperature. […] The extinction was determined by photometry at a wavelength of 595 nm. The change of cell number, in percent, was calculated by normalization of the measured values to the extinction values of the zero-point plate (equivalent to 0%) and the extinction of the untreated (0 μm) cells (equivalent to 100%). The IC50 values were determined by means of a 4 parameter fit using the company's own software.

[2] = system: CACO-2 cells; assay: Cell viability, CACO-2 cells; assay type: cell-based, human
Protocol: as §1, §2

[3] = system: MaTu/ADR cells; assay: Cell viability, MaTu/ADR cells; assay type: cell-based; details: Homo sapiens
Protocol: HeLa- or MDAMB468-Cells or MATU ADR, H460, DU145, CACO-2 or B16F10 cells were maintained in RPMI 1640 or McCoy's 5A cell culture medium+glutamine (PAN Biotech GmbH, Aidenbach, Germany; order no. P04-22100; P04-05500) supplemented with 10% fetal calf serum “Gold” (PAA Laboratories GmbH, Pasching, Austria; order no. A15-151) and grown at 37° C., 5% CO2. For the cell viability assay, cells were seeded with a density of 400 (Hela cells, DSMZ Braunschweig order no. ACC57) or 800 (MDAMB468 cells, ATCC order no. HTB-132) per well in 25 μL in 384-well plates (Greiner Bio-One, Frickenhausen, Germany; order no. 781080). After overnight incubation at 37° C./5% CO2, 25 nL or 75 nL compound were added to each sample well by using BIOMEK FXP Laboratory Automation Workstation (Beckman Coulter, USA). Wells with cells and 0.1% or 0.3% DMSO in culture medium were used as positive controls, wells with cells and 10 μM staurosporine in culture medium were used as negative controls. The cells were incubated with the compounds for 72 h at 37° C./5% CO2. For measurement of cell viability […] Cell Titer Glo reagent (Promega, Madison, USA; order no. G7573), 1:2 diluted with cell culture medium, was added to each well. The 384well-plates were placed for 2 min on an orbital microplate shaker and incubated for further 10 min at room temperature to stabilize the luminescence signal. Luminescence was measured by Envision Plate Reader (Perkin Elmer, USA). […]
as §2, with “After 24 hours, the cells of one plate (zero-point plate) were stained with crystal violet (see below), while the medium of the other plates was replaced by fresh culture medium (200 μl), to which the test substances were added in various concentrations (0 μM as well as in the range of 0.001 to 10 μM; the final concentration of the solvent dimethyl sulfoxide was 0.5%). The cells were incubated in the presence of test substances for 4 days.” left out, “minutes.” for “minutes. After three washing cycles of the fixed cells with water, the plates were dried at room temperature.”

[4] = system: B16F10 cells; assay: Cell viability, B16F10 cells; assay type: cell-based, mouse
Protocol: as §1, §2

[5] = system: DU145 cells; assay: Cell viability, DU145 cells; assay type: cell-based, human
Protocol: as §1, §2

Compound | IC50 ([1]; Homo sapiens, NCI-H460) [µM] | IC50 ([2]; Homo sapiens, Caco-2) [µM] | IC50 ([4]; Mus musculus, B16-F10) [µM] | IC50 ([5]; Homo sapiens, DU-145) [µM] | IC50 ([1]; hydrochloride) [µM] | IC50 ([2]; hydrochloride) [µM] | IC50 ([4]; hydrochloride) [µM] | IC50 ([5]; hydrochloride) [µM] | IC50 [3] [µM]
COc1ccccc1-c1ncnc(Nc2cccc(CS(N)(=O)=O)c2)n1 [B1′, 3-[(4-(2-Methoxyphenyl)-1,3,5-triazin-2-yl)amino]benzenemethanesulfonamide trifluoroacetic acid salt] | 3.5 | 4.3 | 4.4 | 3.8 | – | – | – | – | 3.2
COc1cc(F)ccc1-c1ncnc(Nc2cccc(CS(N)(=O)=O)c2)n1 [B2′, 1-(3-{[4-(4-fluoro-2-methoxyphenyl)-1,3,5-triazin-2-yl]amino}phenyl)methanesulfonamide hydrochloride] | – | – | – | – | 1.5 | 1.5 | 1.1 | 1 | –

The next lines start with results.

IC50 ([1]; Homo sapiens, NCI-H460) [µM] | IC50 ([2]; Homo sapiens, Caco-2) [µM] | IC50 ([4]; Mus musculus, B16-F10) [µM] | IC50 ([5]; Homo sapiens, DU-145) [µM] | IC50 ([1]; hydrochloride) [µM] | IC50 ([2]; hydrochloride) [µM] | IC50 ([4]; hydrochloride) [µM] | IC50 ([5]; hydrochloride) [µM] | Compound | IC50 [3] [µM]
0.32 | 0.37 | 0.32 | 0.33 | – | – | – | – | NS(=O)(=O)Cc1cccc(Nc2ncnc(-c3ccccc3OCc3ccccc3)n2)c1 [B13′, 3-[(4-(2-Benzyloxyphenyl)-1,3,5-triazin-2-yl)amino]benzenemethanesulfonamide trifluoroacetic acid salt] | 0.29
1.1 | 1.1 | 1 | 1 | – | – | – | – | COc1ccccc1-c1ncnc(Nc2cccc(S(N)(=O)=O)c2)n1 [C1′, 3-[(4-(2-Methoxyphenyl)-1,3,5-triazin-2-yl)amino]benzenesulfonamide trifluoroacetic acid salt] | 0.76
1.3 | 1.6 | 1.6 | 1.5 | – | – | – | – | COc1cc(F)ccc1-c1ncnc(Nc2cccc(CS(N)(=O)=O)c2)n1 [Compound B2, 3-[(4-(4-Fluoro-2-methoxyphenyl)-1,3,5-triazin-2-yl)amino]benzenemethanesulfonamide] | 1
